According to patent US20100143250A1, “COMPOUNDS FOR THE DIAGNOSIS OF APOPTOSIS” (priority 2007, published 2010):
Ends that are not written are not given here.

Experiments:
[1] = test system: mouse apoptotic liver; experiment: MRI of apoptotic liver in the mouse (anti-Fas antibody induced); assay type: in vivo, Balb/c mice
Procedure: The targeting effectiveness of the Gd-DTPA-LIKKPF product by MRI was also evaluated on a model of apoptotic liver in the mouse. The apoptosis is induced by means of an i.v. injection (caudal vein) of anti-Fas monoclonal antibody in anesthetized Balb/c mice (Blankenberg et al., 1998, 1999; Rodriguez et al., 1996).
Before the MRI acquisition, the mice are anesthetized with pentobarbital. The experiments are carried out using a 200 MHz Bruker spectrometer (4.7 T) equipped with a vertical magnet and with a mini-imaging system. […] The signal intensity (SI) is measured in the liver. The SI value is also measured in a tube filled with a 2% aqueous solution of gelatin enriched with 50 μM Gd-DTPA, used as a reference product, in a region outside the image of the mouse which corresponds to the background noise. […]
For the two models, the SI values are measured in various regions of interest (at the level of the arterial wall of the abdominal aorta or whole liver) using the OSIRIS image analysis software. […] The SI value is measured on all the image slices where the arterial wall and the liver are visible. […] The % ΔSNR is calculated according to the following equation:
% ΔSNR=[(SIpost/SDnoise)−(SIpre/SDnoise)]/[SIpre/SDnoise]×100 where SDnoise is the standard deviation of the noise measured on a region outside the animal.

[2] = Relaxivity measurements (r1, r2) in aqueous solution; assay type: physicochemical
Procedure: The relaxation times T1 and T2 were determined by standard procedures on a Minispec 120 instrument (Bruker) at 20 MHz (0.47T) and 37° C. The longitudinal relaxation time T1 is measured using an inversion-recovery sequence and the transverse relaxation time T2 is measured using a CPMG technique.
The relaxation rates R1 (=1/T1) and R2 (=1/T2) were calculated for various concentrations of total metal (ranging from 0.1×10^−3 to 1×10^−3 mol/l) in an aqueous solution at 37° C. The correlation between R1 or R2 as a function of the concentration is linear, and the slope represents the relaxivity r1 (R1/C) or r2 (R2/C) expressed as (1/second)×(1/mmol/l), i.e. (s^−1.mM^−1).

[3] = test system: dopaminergic neurons treated with MPP+; experiment: MRI detection in cell culture, healthy cells vs cells treated with MPP+; assay type: cell-based, rat
Procedure: (§1) MRI studies were carried out on C57BI/6 mice treated with MPTP (or its metabolite MPP+ for cell cultures), a neurotoxin which induces a “parkinsonien” syndrome.
In cell culture, the death of dopaminergic neurons by apoptosis was verified using rat brains, by immunohistochemistry and detection of caspase 3 enzyme activity. For the MRI detection in cell culture, the healthy cells and cells treated with MPP+ were brought into contact with USPIO-LIKKPF.

[4] = Interaction of USPIO-LIKKPF with immobilized PS, iron assayed with Prussian blue; assay type: binding; conditions: 2 hours at 37° C., read-out: K*d value
Procedure: The affinity of the USPIO-LIKKPF is measured on immobilized PS (120 μg/ml). After saturation of the nonspecific sites, the USPIO-LIKKPF is incubated at increasing concentrations (122 nM-4 mM with respect to iron) for 2 hours at 37° C. After washing of the wells, the molecules bound to the PS are digested in one volume of 5N HCl. The samples are digested in one volume of 5N HCl, for 48 h at 37° C., and the iron is assayed using Prussian blue (OD630).

[5] = test system: apoptotic Jurkat cells; experiment: In vitro MRI on apoptotic or control Jurkat cells preincubated with USPIO; assay type: cell-based
Procedure: The in vitro MRI is carried out on apoptotic (or control) cells preincubated with the USPIO-LIKKPF or unfunctionalized USPIO (3 or 4 mM with respect to iron) for 2 hours at 37° C. Jurkat cell apoptosis is induced by a treatment with 2 μM camptothecin for 24 hours. After incubation with the USPIO, the labeled cells are transferred into a 0.2% gelatin solution for analysis by MRI (Bruker Avance-200, 4.7 T, TR/TE=3000/20 ms, 30 echos, matrix=256×256, FOV=4 cm, slice thickness=1 mm) in ELISA plate wells.

[6] = Annexin V competition assay for the interaction of USPIO-LIKKPF with PS; assay type: binding; conditions: FIG. 3
[7] = test system: apoptotic nervous tissues; experiment: MRI of mice treated with MPTP (model of Parkinson's disease); assay type: in vivo; conditions: 4th, 5th, 6th day of treatment, one and three weeks after
Procedure: In a model of Parkinson's disease, with the injection of USPIO-LIKKPF product (product of example 1)
as §1
The diseased and healthy mice were studied on the 4th, 5th and 6th day of treatment, and one and three weeks after the end of the treatment with MPTP. […] The MRI localization of the diseased regions corresponds to the regions containing dopaminergic neurons (immunohistochemistry: detection of dopaminergic neurons by measuring tyrosine hydroxylase in the central gray nuclei).

[8] = Annexin V competition assay for peptide LIKKPF on immobilized PS (ELISA plate); assay type: binding; conditions: interaction of peptide LIKKPF with PS, FIG. 1
Procedure: The affinity of the peptide LIKKPF (SEQ ID No 11) is measured on immobilized PS (ELISA plate). […] Incubation at 37° C. is sustained for 1.5 hours. The bound annexin V is detected by adding a solution of streptavidin-HRP, and then a solution of ABTS substrate containing 0.05% of H2O2. The OD405 is measured in order to calculate the IC50 value of the peptide.

## O=C([O-])CN(CCN(CC(=O)[O-])CC(=O)O)CCN(CC(=O)[O-])CC(=O)O.[Gd+3] [Gd-DTPA, reference compound]
[1]; healthy mouse
  MRI signal enhancement in the healthy mouse: only a partial signal enhancement

## Leu-Ile-Lys-Lys-Pro-Phe-OH (LIKKPF-OH)
[1]; peptide preinjected at 100 μmol/kg, apoptotic liver
  effect of preinjection on the enhancement caused by Gd-DTPA-LIKKPF: blocks the enhancement caused by the Gd-DTPA-LIKKPF

## Peptide No. 1-DTPAGd: Bz-NCS-DTPA condensed with peptide Asp-Ala-His-Ser-Phe-SerOH, complexed with gadolinium (DAHSFS; Bz-NCS-DTPA-Gd conjugate; printed: Asp-Ala-His-Ser-Phe-Ser)
[2]
  Relaxivities measured at 20 MHz (37° C.): 6.8 s⁻¹ mM⁻¹

## Peptide No. 3-DTPAGd: Bz-NCS-DTPA condensed with peptide Pro-Gly-Asp-Leu-Ser-Arg-OH, complexed with gadolinium (PGDLSR; Bz-NCS-DTPA-Gd conjugate; printed: Pro-Gly-Asp-Leu-Ser-Arg-)
[2]
  Relaxivities measured at 20 MHz (37° C.): 6.7 s⁻¹ mM⁻¹

## USPIO-LIKKPF: USPIO-PEG-PEPTIDE P contrast product with PEPTIDE P being LIKKPF; product of example 1, PEG size not stated (also: coupled to USPIO nanoparticle via PEG linker, site not given here)
[3]
  MRI signal of diseased vs healthy cells: diseased cells show a darker signal than the others
  uptake of contrast agent (standardized relaxation rate and iron concentration): diseased cells have taken up a larger amount of vectorized contrast agent
[4]
  Kd: 78.5 nM
[5]; Jurkat cells, 2 μM camptothecin 24 hours, 3 or 4 mM iron, 2 hours at 37° C.
  binding to apoptotic cells by MRI (signal intensity vs control cells): binds specifically to the apoptotic cells
[5]; apoptotic cells, 3 mM and 4 mM Fe, FIG. 4
  decrease in MRI signal induced by incubation, vs unfunctionalized USPIO: greater than that recorded with the unfunctionalized USPIO
[6]
  IC50: 420 nM
[7]
  targeting of diseased regions by MRI: more marked at the 5th day

## annexin V: endogenous protein of 35 kDa with high affinity and specificity for PS
[8]
  IC50: 1.08 nM
